pIC50: −log10 of the molar value.
Tests used:
EGFR wild type = target: T1, EGFR wild type (Homo sapiens, UniProt P00533); test: Wild-type EGFR enzyme HTRF inhibition assay; format: biochemical; details: 25 μM ATP, read-out: EGFR WT IC50
T1 construct: purchased Life technology (Madison, Wis.)
Description: (§1) Enzyme: EGFR wild type, EGFR T790M/L858R, EGFR T790M and INSR were purchased from Life technology (Madison, Wis.), EGFR d746-750/T790M was purchased from Carna Biosciences (Japan).
(§2) HTRF Kit was purchased from Cis-Bio International which contained the Eu-labeled TK1 antibody, XL665 and biotin-labeled TK1 polypeptide substrates.
(§3) Detecting instrument: Envision (PerkinElmer).
(§4) The test compound was diluted 3-fold to obtain 10 doses of which the final concentration was from 300 nM to 0.015 nM.
Wild-Type EGFR Enzyme Reaction Mixture System:
0.05 nM Wild-type EGFR, 1 μM biotin-TK1 peptide, 25 μM ATP enzyme buffer, a total of which was 10 μL. The reaction plate was white Proxiplate 384-Plus plate (PerkinElmer) and the mixture was reacted at 23° C. for 60 minutes.
(§5) Reaction Detection: 10 μL of detection reagent containing Antibody 2 nM and XL665 62.5 nM was added, and the reagent was incubated at 23° C. for 60 minutes. The plates were read by Envision.
(§6) The reading is converted to the suppression rate (%) by the following formula […]/(Max-Min)*100%. IC50 Data was measured by four-parameter curve fitting (Model 205 in XLFITS, IDBS).

EGFR T790M/L858R = target: T2, EGFR T790M/L858R (Homo sapiens, UniProt P00533, L858R/T790M); test: EGFR T790M/L858R enzyme HTRF inhibition assay; format: biochemical; details: 20 μM ATP, read-out: EGFR L858R/T79M IC50
T2 construct: purchased Life technology (Madison, Wis.)
T2 sequence (P00533 25-1210 T790M/L858R): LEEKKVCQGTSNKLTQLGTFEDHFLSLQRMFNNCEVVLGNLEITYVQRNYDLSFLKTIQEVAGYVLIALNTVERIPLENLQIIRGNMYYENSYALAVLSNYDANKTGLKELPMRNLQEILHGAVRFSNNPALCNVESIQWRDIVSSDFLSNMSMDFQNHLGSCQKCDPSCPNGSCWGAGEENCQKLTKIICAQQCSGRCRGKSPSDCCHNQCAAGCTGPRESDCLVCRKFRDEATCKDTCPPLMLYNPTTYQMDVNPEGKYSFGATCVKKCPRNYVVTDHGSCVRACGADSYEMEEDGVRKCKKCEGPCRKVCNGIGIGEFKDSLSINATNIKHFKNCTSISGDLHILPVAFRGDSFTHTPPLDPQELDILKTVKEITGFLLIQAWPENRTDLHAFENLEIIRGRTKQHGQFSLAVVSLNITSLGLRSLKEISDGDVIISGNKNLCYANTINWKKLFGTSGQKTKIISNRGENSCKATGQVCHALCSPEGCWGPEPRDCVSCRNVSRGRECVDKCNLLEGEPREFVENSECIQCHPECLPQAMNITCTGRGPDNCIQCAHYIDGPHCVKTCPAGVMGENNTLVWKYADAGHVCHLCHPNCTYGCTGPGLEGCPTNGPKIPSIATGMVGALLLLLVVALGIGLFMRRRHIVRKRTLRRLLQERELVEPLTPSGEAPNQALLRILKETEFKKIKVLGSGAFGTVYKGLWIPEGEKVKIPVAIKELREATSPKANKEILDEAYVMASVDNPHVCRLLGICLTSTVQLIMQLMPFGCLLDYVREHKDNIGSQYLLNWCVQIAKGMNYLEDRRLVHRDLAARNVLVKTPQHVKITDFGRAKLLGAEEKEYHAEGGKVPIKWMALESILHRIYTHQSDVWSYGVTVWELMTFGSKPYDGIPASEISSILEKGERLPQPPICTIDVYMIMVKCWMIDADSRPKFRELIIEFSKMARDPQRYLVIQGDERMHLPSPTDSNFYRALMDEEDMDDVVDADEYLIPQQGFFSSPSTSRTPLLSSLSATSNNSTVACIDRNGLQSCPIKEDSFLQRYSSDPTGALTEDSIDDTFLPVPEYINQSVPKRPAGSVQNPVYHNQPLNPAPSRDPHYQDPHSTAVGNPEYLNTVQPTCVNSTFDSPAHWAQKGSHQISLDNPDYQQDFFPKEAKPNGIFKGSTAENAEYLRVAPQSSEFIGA
Description: as §1, §2, §3, §4
EGFR T790M/L858R Enzyme Reaction Mixture System:
0.04 nM EGFR T790M/L858R, 1 μM biotin-TK1 peptide, 20 μM ATP enzyme buffer, a total of which was 10 μL. The reaction plate was white Proxiplate 384-Plus plate (PerkinElmer) and the mixture was reacted at 23° C. for 60 minutes.
as §5, §6

A431 cells EGFR WT = test: A431 cell viability assay (Cell Titer-Glo, 6 days); format: cell-based, human; details: for pIC50: Homo sapiens, A-431, 144 h, A431 cells, 6 days; for A431:NCI-H1975 (ratio): ratio of cell IC50 A431 to NCI-H1975
Description: (§7) RPMI1640, fetal bovine serum, penicillin/streptomycin solution were purchased from Life Technology (Madison, Wis.). Cell Titer-Glo luminescent cell viability reagents were purchased from Promega (Madison, Wis.). A431 cell line and NCI-H1975 cell line were purchased from European Collection of Cell Cultures (ECACC). Plate Reader Instrument: Envision (PerkinElmer).
(§8) 384-Well plates, 300 of A431 cells and NCI-H1975 cells were inoculated per well, a volume of which was 45 μL. And the plates were incubated overnight in a CO2 incubator at 37° C. The test compound was diluted 3-fold to obtain 10 dose concentrations, the final concentrations of which were from 10 μM to 0.508 nM, two wells. The middle plates were filled with 49 μL of medium per well. 1 μL of compound in the gradient dilution compound plates was transferred to the middle plates and mixed well. And then 5 μL liquid in the middle plates was taken to the cell plates. The cells were incubated in a CO2 incubator for 6 days. After 6 days, 25 μL of detection reagents was added. And then the mixture was incubated at room temperature for 10 minutes and the plates were read by Envision.
(§9) The reading is converted to the suppression rate by the following formula (%) (Max-Sample)/(Max-Min)*100%. IC50 Data was measured by Four-parameter curve fitting (Model 205 in XLFIT5, IDBS).

EGFR d746-750/T790M = target: T3, EGFR d746-750/T790M (Homo sapiens, UniProt P00533, DEL746-750/T790M); test: EGFR d746-750/T790M enzyme HTRF inhibition assay; format: biochemical; details: 40 μM ATP
T3 construct: purchased Carna Biosciences (Japan)
T3 sequence (P00533 with tags, fused parts or gaps DEL746-750/T790M limits assumed): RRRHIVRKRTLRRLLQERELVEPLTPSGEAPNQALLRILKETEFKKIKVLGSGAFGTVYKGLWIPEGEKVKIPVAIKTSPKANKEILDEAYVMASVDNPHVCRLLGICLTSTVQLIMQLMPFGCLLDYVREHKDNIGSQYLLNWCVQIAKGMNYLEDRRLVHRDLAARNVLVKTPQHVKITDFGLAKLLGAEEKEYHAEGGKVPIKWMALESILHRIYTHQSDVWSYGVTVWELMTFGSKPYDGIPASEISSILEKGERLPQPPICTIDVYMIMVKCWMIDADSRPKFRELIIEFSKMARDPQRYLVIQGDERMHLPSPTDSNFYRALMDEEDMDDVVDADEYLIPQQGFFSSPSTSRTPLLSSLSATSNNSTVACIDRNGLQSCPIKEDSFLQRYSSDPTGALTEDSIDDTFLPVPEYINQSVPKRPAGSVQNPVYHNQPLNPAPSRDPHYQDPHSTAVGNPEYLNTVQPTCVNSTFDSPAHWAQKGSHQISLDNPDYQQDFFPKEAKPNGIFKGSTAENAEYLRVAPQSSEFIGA
Description: as §1, §2, §3, §4
EGFR d746-750/T790M Enzyme Reaction Mixture System:
0.025 nM EGFR d746-750/T790M, 1 μM biotin-TK1 peptide, 40 μM ATP enzyme buffer, a total of which was 10 μL. The reaction plate was white Proxiplate 384-Plus plate (PerkinElmer) and the mixture was reacted at 23° C. for 60 minutes.
as §5, §6

[1] = system: NCI-H1975 cells EGFR L858R/T790M; test: NCI-H1975 cell viability assay (Cell Titer-Glo, 6 days); format: cell-based; details: Homo sapiens, 144 h
Description: as §7, §8, §9

T1 sequence (P00533 25-1210): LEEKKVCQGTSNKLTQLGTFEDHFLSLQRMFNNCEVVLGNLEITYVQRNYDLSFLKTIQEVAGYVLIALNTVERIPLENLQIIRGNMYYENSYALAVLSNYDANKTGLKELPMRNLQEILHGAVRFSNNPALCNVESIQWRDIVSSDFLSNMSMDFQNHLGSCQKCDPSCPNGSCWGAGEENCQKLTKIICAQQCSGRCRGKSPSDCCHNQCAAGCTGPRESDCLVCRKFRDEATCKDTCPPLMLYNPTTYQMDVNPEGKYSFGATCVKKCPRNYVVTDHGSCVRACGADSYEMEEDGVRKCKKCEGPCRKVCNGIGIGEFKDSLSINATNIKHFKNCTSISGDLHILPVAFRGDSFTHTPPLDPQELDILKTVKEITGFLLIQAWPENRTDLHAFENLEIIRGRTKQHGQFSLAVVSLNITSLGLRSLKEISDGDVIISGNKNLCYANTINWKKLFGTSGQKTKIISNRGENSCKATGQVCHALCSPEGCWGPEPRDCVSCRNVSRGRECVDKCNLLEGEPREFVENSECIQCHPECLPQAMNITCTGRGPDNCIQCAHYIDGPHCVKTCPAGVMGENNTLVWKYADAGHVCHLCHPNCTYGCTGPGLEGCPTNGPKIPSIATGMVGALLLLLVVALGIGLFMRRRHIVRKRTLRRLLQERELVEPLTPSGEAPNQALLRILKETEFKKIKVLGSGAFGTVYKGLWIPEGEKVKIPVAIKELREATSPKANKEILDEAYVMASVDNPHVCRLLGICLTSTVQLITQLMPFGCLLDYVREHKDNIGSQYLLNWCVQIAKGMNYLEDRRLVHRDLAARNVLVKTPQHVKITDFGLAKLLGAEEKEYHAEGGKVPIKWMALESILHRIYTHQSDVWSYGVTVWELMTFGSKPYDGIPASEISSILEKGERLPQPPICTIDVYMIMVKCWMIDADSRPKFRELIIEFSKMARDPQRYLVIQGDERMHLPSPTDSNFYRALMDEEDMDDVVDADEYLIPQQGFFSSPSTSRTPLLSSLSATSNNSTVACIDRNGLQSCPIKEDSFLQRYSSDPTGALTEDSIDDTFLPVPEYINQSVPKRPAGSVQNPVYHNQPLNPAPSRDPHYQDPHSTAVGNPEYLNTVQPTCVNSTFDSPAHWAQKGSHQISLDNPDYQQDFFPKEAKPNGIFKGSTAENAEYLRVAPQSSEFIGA

| Structure (SMILES) | pIC50 (EGFR wild type) | pIC50 (EGFR T790M/L858R) | pIC50 (A431 cells EGFR WT) | A431:NCI-H1975 (ratio) (A431 cells EGFR WT) | pIC50 (EGFR d746-750/T790M) | pIC50 [1] |
| --- | --- | --- | --- | --- | --- | --- |
| C=CC(=O)Nc1cc(Nc2nccc(-c3c4n(c5ccccc35)CCOC4)n2)c(OC)cc1N(CC)CCN(C)C [Embodiment 19, N-(5-((4-(3,4-Dihydro-1H-[1,4]oxazino[4,3-a]indol-10-yl)pyrimidin-2-yl)amino)-2-((2-(dimethylamino)ethyl)(ethyl)amino)-4-methoxyphenyl)acrylamide] | 8.57 | 9.52 | 6.02 | 33 | 9.59 | 7.54 |
| C=CC(=O)Nc1cc(Nc2nccc(-c3c4n(c5ccccc35)CCOC4)n2)c(OC(C)C)cc1N(C)CCN(C)C [Embodiment 29, N-(5-((4-(3,4-Dihydro-1H-[1,4]oxazino[4,3-a]indol-10-yl)pyrimidin-2-yl)amino)-2-((2-(dimethylamino)ethyl)(methyl)amino)-4-isopropoxyphenyl)acrylamide] | 8.29 | 9.42 | 5.93 | 47 | 9.42 | 7.60 |
| C=CC(=O)Nc1cc(Nc2nccc(-c3c4n(c5ccccc35)CC(F)(F)CC4)n2)c(OC)cc1N(C)CCN(C)C [Embodiment 14, N-(5-((4-(7,7-Difluoro-8,9-dihydro-6H-pyrido[1,2-a]indol-10-yl)pyrimidin-2-yl)amino)-2-((2-(dimethylamino)ethyl)(methyl)amino)-4-methoxyphenyl)acrylamide] | 9.22 | 9.57 | 6.87 | 10.3 | 9.48 | 7.89 |
| C=CC(=O)Nc1cc(Nc2nccc(-c3c4n(c5ccccc35)CCC4=O)n2)c(OC)cc1N(C)CCN(C)C [Embodiment 12, N-(2-((2-(Dimethylamino)ethyl)(methyl)amino)-4-methoxy-5-((4-(1-oxo-2,3-dihydro-1H-pyrrolo[1,2-a]indol-9-yl)pyrimidin-2-yl)amino)phenyl)acrylamide] | 9.37 | 9.48 | 6.43 | 76.9 | 9.51 | 8.32 |
| C=CC(=O)Nc1cc(Nc2nccc(-c3c4n(c5ccccc35)CCOC4)n2)c(OC)cc1N(C)C(C)CN(C)C (stereo not drawn) [Embodiment 20, N-(5-((4-(3,4-Dihydro-1H-[1,4]oxazino[4,3-a]indol-10-yl)pyrimidin-2-yl)amino)-2-((1-(dimethylamino)propan-2-yl)(methyl)amino)-4-methoxyphenyl)acrylamide] | 9.18 | 9.70 | 6.79 | 41.0 | 9.77 | 8.40 |
| C=CC(=O)Nc1cc(Nc2nccc(-c3c4n(c5ccccc35)CCC4)n2)c(OC)cc1CCCN(C)C [Embodiment 10] | 7.56 | 8.66 | 5.65 | 8.0 | 8.72 | 6.55 |
| C=CC(=O)Nc1cc(Nc2nccc(-c3c4n(c5ccccc35)CCC4)n2)c(OC)cc1N(C)CCN1CCCC1 [Embodiment 5] | 8.14 | 9.03 | 5.57 | 140.6 | 9.01 | 7.72 |
| C=CC(=O)Nc1cc(Nc2ncc(F)c(-c3c4n(c5ccccc35)C(C)(C)COC4)n2)c(OC)cc1N(C)CCN(C)C.CS(=O)(=O)O [Embodiment 36, N-(5-((4-(4,4-Dimethyl-3,4-dihydro-1H-[1,4]oxazino[4,3-a]indol-10-yl)-5-fluoropyrimidin-2-yl)amino)-2-((2-(dimethylamino)ethyl)(methyl)amino)-4-methoxyphenyl)acrylamide methanesulfonate] | 8.57 | 8.89 | 6.36 | 2.5 | 8.89 | 6.76 |

Reference: patent US10093656B2, “Fused-ring or tricyclic aryl pyrimidine compound used as kinase inhibitor” (NANJING SANHOME PHARMACEUTICAL CO., LTD, priority 2015, dated 2018)
